IC90 data for 2 compounds are collected here from PubChem BioAssay AID743165 (Broad Institute, 2013).

As a reminder, the IC90 is the concentration at which the effect reaches the 90% level.

In this test the test system is Mycobacterium tuberculosis replicating, CFU imaging. Kind of test: IC90 against replicating M. tuberculosis, dose response, CFU by imaging, dry powder, 7108-03 (AID 743165).

For the compound `Cn1c(NC(=O)c2ccccc2)nc2ccccc21`, the concentration for an effect of 90% (IC90) was less than 48 µM.
For `CCOC(=O)NC(=O)c1ccsc1NC(=O)c1nc2ccccc2s1`, the IC90 is less than 8 µM.
